This note sets out measurements from PubChem BioAssay AID1996.

≈ marks a conversion by molar mass, not a printed value.

The conditions of this data set: buffer; pH 7.4; 200.0 µM.
The term solubility (kinetic) denotes the concentration staying in solution when a stock, usually in DMSO, is diluted into the medium. In the case of `COC(=O)C(Cc1c[nH]c2ccccc12)NC(=O)C1CC1` (stereo unspecified), the kinetic solubility is > 42.9 µg/mL.
The result for `Cc1ccc(NC(=S)Nc2cccc(-c3n[nH]c(=S)o3)c2)cc1` reads > 51.4 µg/mL; that for `CCN(C(=O)COC(=O)c1cccnc1)c1cccc2ccccc12`, > 50.2 µg/mL; that for `Cc1ccc(CNC(=O)CCCc2ccccc2)cc1`, 9.2 µg/mL (≈ 34.4 µM).
The result for `O=C(NCC1CCCO1)c1ccc2[nH]c3c(c2c1)CCCC3` (stereo unspecified) reads > 44.8 µg/mL; that for `Cn1cc(Br)c(-c2cccc(N3C(=O)CCCC3=O)c2)n1`, > 52.2 µg/mL.
`Cn1cnc(NCc2ccccc2)c1[N+](=O)[O-]` displayed a kinetic solubility of 1.2 µg/mL (≈ 5.17 µM).
The result for `Cc1ccc(NC(=O)Cc2ccsc2)cc1S(=O)(=O)N1CCOCC1` reads > 57.1 µg/mL; that for `Cn1cccc1C(=O)NCc1ccc(Cl)cc1`, > 37.3 µg/mL.
For `Cn1c(=O)c2c(nc(Oc3cccc(O)c3)n2C)n(C)c1=O`, the solubility (kinetic) was > 45.3 µg/mL.
As for `CNC(=O)COC(=O)/C=C/c1cccs1`, the figure is > 33.8 µg/mL; as for `Cc1nnc(N(C)C(=O)c2ccc3c(c2)OCO3)s1`, > 41.6 µg/mL.
The compound `CCN(Cc1ccncc1)C(=O)c1ccc2c(c1)S(=O)(=O)c1ccccc1C2=O` showed a kinetic solubility of 42 µg/mL (≈ 103 µM).
The result for `Cc1ccc(C(=O)CCC(=O)Nc2cc(C)ccn2)cc1` reads 6.2 µg/mL (≈ 22 µM); that for `CCOC(=O)c1c(O)c2ccccc2n(C)c1=O`, > 37.1 µg/mL.
Turning to `CCN(CC)S(=O)(=O)c1ccc(/C=C/C(=O)OCC(=O)NC(=O)C2COc3ccccc3O2)cc1` (stereo unspecified), the solubility (kinetic) is 21 µg/mL (≈ 41.8 µM).
Compound `Cc1ccc(C(=O)Oc2ccc(C(=S)N3CCOCC3)cc2)cc1` came in with a kinetic solubility of 2.5 µg/mL (≈ 7.32 µM).
As for `CCOc1ccc2oc(C(=O)N3CC(C)OC(C)C3)c(C)c2c1` (stereo unspecified), the figure is 41.6 µg/mL (≈ 131 µM); as for `S=C(Nc1ccc(Br)cc1)N1CCN(c2ccccn2)CC1`, 2.1 µg/mL (≈ 5.57 µM); as for `CC(=O)c1c(C)nc(-c2ccccc2)nc1NC(=O)Cc1ccccc1`, 11 µg/mL (≈ 31.8 µM).
Turning to `COc1ccc2[nH]cc(C(=O)CN3CCCC(C)(C)C3)c2c1`, the kinetic solubility is > 45.1 µg/mL.
As for `COc1cc(NC(=O)c2onc(C)c2Cl)cc(OC)c1OC`, the figure is 28.7 µg/mL (≈ 87.8 µM); as for `O=S(=O)(Nc1cccc(S(=O)(=O)N2CCCCC2)c1)c1ccccc1F`, > 59.8 µg/mL; as for `Cc1c(Cl)cccc1NC(=O)CSc1nccn1C`, > 44.4 µg/mL.
As for `Cc1cc(C)n2nc(SCC(=O)N3CCC(C(=O)O)CC3)nc2n1`, the figure is > 52.4 µg/mL.
Turning to `COc1ccc(CNC(=O)CN2C(=O)NC(c3ccccc3)(c3ccccc3)C2=O)cc1`, the kinetic solubility turned out to be 4.5 µg/mL (≈ 10.5 µM).
With `Cc1cc(C)c(C(=O)CSc2nnc(C)c(=O)[nH]2)cc1C`, the solubility (kinetic) was > 45.5 µg/mL.
The result for `Cc1ccc(NC2CC(=O)N(c3cccc([N+](=O)[O-])c3)C2=O)cc1` (stereo unspecified) reads 39 µg/mL (≈ 120 µM); that for `O=C(Cc1ccc([N+](=O)[O-])cc1)N1CCN(Cc2ccc3c(c2)OCO3)CC1`, 46.4 µg/mL (≈ 121 µM); that for `Nc1c(C(=O)c2ccccc2)oc2ccc([N+](=O)[O-])cc12`, 1.3 µg/mL (≈ 4.61 µM).
As for `CC(=O)c1c(C)[nH]c(C(=O)COC(=O)c2ccc(C)s2)c1C`, the figure is 3.5 µg/mL (≈ 11 µM).
Take `CCN1CCc2c(OCC(=O)N3CCc4ccccc43)cccc2C1=O`: the kinetic solubility was > 52.6 µg/mL.
As for `CC(CC(=O)N1CCN(C(=O)c2ccccc2)CC1)c1ccccc1` (stereo unspecified), the figure is > 50.5 µg/mL; as for `O=C(O)c1ccccc1Nc1ccc(OC(F)F)cc1`, > 41.9 µg/mL; as for `CC(=O)Nc1c(C)nn(-c2ccc([N+](=O)[O-])cc2)c1C`, > 41.1 µg/mL.
Take `CCSc1ncc(Cl)c(C(=O)Nc2ccccc2Cl)n1`: the solubility (kinetic) is < 0.2 µg/mL.
As for `COC(=O)c1ccc2c(=O)n(-c3ccccc3F)c(=S)[nH]c2c1`, the figure is 1 µg/mL (≈ 3.03 µM); as for `O=C(NCc1ccccc1)NC(=O)c1ccc(Cl)cc1`, < 0.3 µg/mL; as for `O=C(/C=C/C=C/c1ccccc1)CC1(O)C(=O)Nc2ccccc21` (stereo unspecified), > 47.9 µg/mL.
As for `Cc1cc(NC(=O)c2ccc([N+](=O)[O-])cc2)no1`, the solubility (kinetic) is < 0.2 µg/mL.
`CCOc1ccccc1/C=C/c1cc(C(=O)O)c2ccccc2n1` displayed a kinetic solubility of 45.8 µg/mL (≈ 143 µM).
Compound `O=C(COC(=O)c1cccs1)NCc1cccs1` registered a solubility (kinetic) of 40 µg/mL (≈ 142 µM).
The result for `Cc1cc(C)cc(C(=O)OCC(=O)NC2CCCC2)c1` reads 21.7 µg/mL (≈ 78.8 µM); that for `C=CCn1c(NC(=O)c2ccc(C)cc2)nc2ccccc21`, < 0.2 µg/mL; that for `Cc1ccnc2nc(C(=O)OCC(=O)c3ccccc3)nn12`, > 44.4 µg/mL.
As for `S=C(NCc1ccco1)N/N=C/c1ccncc1`, the solubility (kinetic) is > 39 µg/mL.
The result for `Nc1nonc1OCCCCOc1nonc1N` reads 21.1 µg/mL (≈ 82.4 µM); that for `CC1=C(C(N)=O)C(c2cccs2)NC(=S)N1` (stereo unspecified), 34.7 µg/mL (≈ 137 µM).
The result for `O=S(=O)(c1cccc(C(F)(F)F)c1)c1ccc(O)cn1` reads 41.1 µg/mL (≈ 136 µM).
The result for `O=S(=O)(NCCC1=CCCCC1)c1ccc(F)cc1` reads 16.9 µg/mL (≈ 59.6 µM); that for `COc1ccc(C(=O)NC(=S)NCc2ccco2)cc1`, 4.6 µg/mL (≈ 15.8 µM).
